Reference: patent US20030007993A1, “biomedical devices with antimicrobial cationic peptide and protein coatings” (priority 2000, published 2003)
No end group written: not given here.

Columns and labels:
P. aeruginosa 6294 = test: bacterial adhesion (total counts) and viable counts on coated etafilcon A lenses; assay type: cell-based, Pseudomonas aeruginosa; design: key to Reduction v. control* / Reduction v. total**: “—” indicates no reduction in adhesion; settings: for Reduction v. control* / Reduction v. total**: strain 6294
Protocol: (§1) For conducting total counts, etafilcon A lenses were removed from the manufacturers vials, washed three times in 1 ml PBS and then coated with various concentrations of cationic proteins/peptides overnight at 37° C. either individually or in combination. After incubation, the lenses were washed three times in PBS and 0.5 ml of 1×10^8 bacterial cells/ml was added to the lenses. After incubation at ambient temperature for 10 min, the lenses were washed three times in PBS to remove non-adherent or loosely adherent bacteria and stained with crystal violet for 1 min. The number of cells per lens was examined under the microscope. Five grids (0.005625 mm^2) per lens were counted and triplicate lenses for each treatment were assayed.
(§2) For conducting viable counts, etafilcon A lenses were removed from the manufacturers vials, washed three times in 1 ml PBS and then coated with various concentrations of cationic proteins/peptides overnight at 37° C. (either individually or in combination). After incubation, the lenses were washed three times in PBS and 0.5 ml of 1×10^8 bacterial cells/ml was added to the lenses. After incubation at ambient temperature for 10 min, the lenses were washed three times in PBS to remove non-adherent or loosely adherent bacteria. Lenses were then homogenized using 1 ml PBS and a small magnetic stirring bar (octagonal cross-section, 0.5″×0.125″) and stirred at maximum speed for one hour which was sufficient for lens disintegration. Serial dilutions were then made according to the technique of Miles and Misra and aliquots (20 μL) plated out on nutrient agar. After incubation overnight at 37° C., viable bacteria were determined and results expressed as colony forming units/mm^2 after calculation of the surface area of the lens (approximately 310 mm^2).
(§3) The lenses were incubated in concentrations of cationic proteins/peptides that were either effective in solution or the highest concentration available if there was no effect in solution. After rinsing, bacteria were added and numbers of cells analyzed as the total cells per mm^2 of the lens or the number of viable cells per mm^2 of the lens.

S. aureus 31 = test: as above; assay type: cell-based, Staphylococcus aureus; design: key to Reduction v. control* / Reduction v. total**: “—” indicates no reduction in adhesion; settings: for Reduction v. control* / Reduction v. total**: strain Saur 31; for Reduction v. control*: coated etafilcon A lens compared to adhesion control lens not coated; for Reduction v. total**: compared to the number of total bacterial cells adhered to coated lens (growth of adhered bacteria)
Protocol: as §1, §2, §3

bacteria = test: surface coatings: adherence and growth of bacteria on the device (summary statements); assay type: cell-based; settings: coated lenses, in words; for viability of adhered cells: compared to the cells adhered to the uncoated lens
Protocol: as §1, §2, §3

[1] = tested on: Pseudomonas aeruginosa 6294; test: growth of bacteria in solution with cationic proteins/peptides (slow growing in PBS, rapid growing in TSB); assay type: cell-based
Protocol: (§4) To assess the effect of the cationic proteins/peptides in solution against rapid growing bacterial cells, bacteria were cultured in Trypticase soy broth (“TSB”) overnight at 35° C. Aliquots (20 μl) of this cell suspension were then added to fresh TSB (10 ml). Different concentrations of the cationic proteins/peptides were added to the fresh broth and incubated for up to 48 h at 35° C. Samples were taken at different time points and the optical density at 660 nm measured as a measure of changes in bacterial numbers was measured.
(§5) To assess the effect of the cationic proteins/peptides in solution against slow growing bacterial cells, cells were grown as previously in TSB. The cells were then harvested by centrifugation and washed in phosphate buffered saline (PBS; NaCl 8 g/l; KCl 0.2 g/l; Na2HPO4 1.15 g/l; KH2PO4 0.2 g/l). The cells were then re-suspended to OD 0.1 (unless otherwise stated) at 660 nm in PBS, different concentrations of cationic proteins/peptides were added and incubated for up to 48 h at 35° C. Samples were taken a different points and numbers of bacteria analyzed using the Miles and Misra technique (i.e. numbers that are viable after plating dilutions onto nutrient agar plates).
(§6) The results obtained in solution for all cationic proteins and peptides studied are shown on Table 3. Most protein/peptides were screened against only P. aeruginosa 6294 and S. aureus 31.
(§7) In Table 3, slow growing cells are those re-suspended in PBS with cationic protein/peptide and rapid growing are those re-suspended in TSB plus cationic protein/peptide. The numbers in μg/ml are in concentration showing peak activity. A “−” sign indicates no reduction in bacterial growth, a “+” sign indicates a 1 to 50% reduction in growth, a “++” sign indicates a 51 to 89% reduction in growth, a “+++” sign indicates a 90 to 98% reduction in growth a “++++” sign indicates a greater than 98% reduction in growth.

[2] = tested on: Staphylococcus aureus Saur31; test: as above; assay type: cell-based; settings: Saur 31
Protocol: as §4, §5, §6, §7

[3] = tested on: Pseudomonas aeruginosa Paer1; test: as above; assay type: cell-based; settings: Paer 1; 24 h, 15 μg/ml slow growing
Protocol: as §4, §5, §6, §7

Serratia marcesens Smar5 = test: as above; assay type: cell-based; design: key: A “−” sign indicates no reduction in bacterial growth; —: A “−” sign indicates no reduction in bacterial growth; a “+” sign indicates a 1 to 50% reduction in growth; a “++” sign indicates a 51 to 89% reduction in growth; a “+++” sign indicates a 90 to 98% reduction in growth; a “++++” sign indicates a greater than 98% reduction in growth; settings: Smar 5
Protocol: as §4, §5, §6, §7

[4] = tested on: Staphylococcus intermedius Sint 2; test: as above; assay type: cell-based; design: key: A “−” sign indicates no reduction in bacterial growth; —: A “−” sign indicates no reduction in bacterial growth; a “+” sign indicates a 1 to 50% reduction in growth; a “++” sign indicates a 51 to 89% reduction in growth; a “+++” sign indicates a 90 to 98% reduction in growth; a “++++” sign indicates a greater than 98% reduction in growth
Protocol: as §4, §5, §6, §7

[5] = tested on: gram-positive and gram-negative bacteria; test: growth of bacteria in solution (summary statement); assay type: cell-based; settings: in words
Protocol: as §4, §5, §6

[6] = tested on: Pseudomonas aeruginosa 6206; test: growth of bacteria in solution with cationic proteins/peptides (slow growing in PBS, rapid growing in TSB); assay type: cell-based; design: key: A “−” sign indicates no reduction in bacterial growth; —: A “−” sign indicates no reduction in bacterial growth; a “+” sign indicates a 1 to 50% reduction in growth; a “++” sign indicates a 51 to 89% reduction in growth; a “+++” sign indicates a 90 to 98% reduction in growth; a “++++” sign indicates a greater than 98% reduction in growth
Protocol: as §4, §5, §6, §7

[7] = coated etafilcon A lens compared to adhesion control lens not coated
[8] = compared to the number of total bacterial cells adhered to coated lens (growth of adhered bacteria)
[9] = slow growing (PBS), 125-1000 μg/ml

Cecropin P1
Reduction v. control* (P. aeruginosa 6294; [7]): — | Reduction v. total** (P. aeruginosa 6294; [8]): — | Reduction v. control* (S. aureus 31): — | Reduction v. total** (S. aureus 31): —

Cecropin A
Reduction v. control* (P. aeruginosa 6294; [7]): — | Reduction v. total** (P. aeruginosa 6294; [8]): 93% | Reduction v. control* (S. aureus 31): — | Reduction v. total** (S. aureus 31): — | viability of adhered cells (bacteria): significant reduction in the viability | total adhesion of bacteria (bacteria): did not reduce the total adhesion

Magainin 2
reduction in bacterial growth ([1]; 24 h, 400 μg/ml, slow growing): +++(24 h, (a “+++” sign indicates a 90 to 98% reduction in growth) | Reduction v. control* (P. aeruginosa 6294; [7]): — | Reduction v. total** (P. aeruginosa 6294; [8]): — | Reduction v. control* (S. aureus 31): — | Reduction v. total** (S. aureus 31): —

Magainin 1 (GIGKFLHSAGKFGKAFVGEIMKS; Magainin-1; UniProt P11006 37-59, looked up) [cationic peptide, source frog]
Reduction v. control* (P. aeruginosa 6294; [7]): — | Reduction v. total** (P. aeruginosa 6294; [8]): — | Reduction v. control* (S. aureus 31): — | Reduction v. total** (S. aureus 31): —

Transferrin
Reduction v. control* (P. aeruginosa 6294; 125 μg/ml, compared to adhesion control lens not coated): — | Reduction v. total** (P. aeruginosa 6294; 125 μg/ml, compared to total bacterial cells adhered to coated lens): —

Melittin-1-13 AA
reduction in bacterial growth ([1]; 24h, 1000 μg/ml): ++(24h, (a “++” sign indicates a 51 to 89% reduction in growth) | reduction in bacterial growth ([2]; 48h, 24h, 1000 μg/ml): ++(48h, (a “++” sign indicates a 51 to 89% reduction in growth) | Reduction v. control* (P. aeruginosa 6294; [7]): — | Reduction v. total** (P. aeruginosa 6294; [8]): — | Reduction v. control* (S. aureus 31): — | Reduction v. total** (S. aureus 31): —

Melittin
reduction in bacterial growth ([1]; 24 h, 15 μg/ml slow growing): ++(24 h, (a “++” sign indicates a 51 to 89% reduction in growth) | reduction in bacterial growth [3]: ++++(24 h, (a “++++” sign indicates a greater than 98% reduction in growth) | reduction in bacterial growth ([2]; 15 μg/ml rapid growing): ++++ (a “++++” sign indicates a greater than 98% reduction in growth) | reduction in bacterial growth ([2]; 24 h, 15 μg/ml slow growing): ++++(24 h, (a “++++” sign indicates a greater than 98% reduction in growth) | reduction in bacterial growth (Serratia marcesens Smar5; growth state not given, 15 μg/ml): — | reduction in bacterial growth ([4]; 24 h, 15 μg/ml rapid growing): ++++(24 h, (a “++++” sign indicates a greater than 98% reduction in growth) | reduction in bacterial growth ([4]; 24 h, 15 μg/ml slow growing): ++++(24 h, (a “++++” sign indicates a greater than 98% reduction in growth) | Reduction v. control* (P. aeruginosa 6294; [7]): 70% | initial adhesion of S. aureus 31 (S. aureus 31; coated lenses, in words): reduced initial adhesion | Reduction v. control* (S. aureus 31): 60% | preventing the growth of gram-positive and gram-negative bacteria in solution [5]: most efficacious

β Defensin 1 (DHYNCVSSGGQCLYSACPIFTKIQGTCYRGKAKCCK; ends and bridges not checked; cysteine pairing not given here; UniProt P60022 33-68, looked up) [cationic peptide, source human]
reduction in bacterial growth ([1]; 24h, 60 μg/ml): ++(24h, (a “++” sign indicates a 51 to 89% reduction in growth) | Reduction v. control* (P. aeruginosa 6294; [7]): — | Reduction v. total** (P. aeruginosa 6294; [8]): — | Reduction v. control* (S. aureus 31): — | Reduction v. total** (S. aureus 31): —

Protamine
reduction in bacterial growth [6, 9]: ++++(slow (a “++++” sign indicates a greater than 98% reduction in growth) | reduction in bacterial growth (Serratia marcesens Smar5; 1000 μg/ml slow growing): ++++(1000 (a “++++” sign indicates a greater than 98% reduction in growth) | reduction in bacterial growth (Serratia marcesens Smar5; <1000 μg/ml slow growing): −(<1000 | reduction in bacterial growth ([4]; rapid growing (TSB), 125-1000 μg/ml): −(rapid | reduction in bacterial growth [4, 9]: ++++ (slow (a “++++” sign indicates a greater than 98% reduction in growth) | viability of the cells on the coated lenses (P. aeruginosa 6294; P. aeruginosa 6294, in words): reduced the viability | adhesion of P. aeruginosa 6294 to the lenses (P. aeruginosa 6294; coated lenses, in words): significantly reduced the adhesion | Reduction v. control* (P. aeruginosa 6294; [7]): 80% | Reduction v. total** (P. aeruginosa 6294; [8]): 80% | Reduction v. control* (S. aureus 31): — | Reduction v. total** (S. aureus 31): — | preventing the growth of gram-positive and gram-negative bacteria in solution [5]: most efficacious

Defensin HNP-1
reduction in bacterial growth ([1]; 2 μg/ml): +(2 μg/ml) (a “+” sign indicates a 1 to 50% reduction in growth) | Reduction v. control* (P. aeruginosa 6294; [7]): — | Reduction v. total** (P. aeruginosa 6294; [8]): — | Reduction v. control* (S. aureus 31): — | Reduction v. total** (S. aureus 31): —

Nisin
reduction in bacterial growth ([1]; 2 μg/ml): ++(2 μg/ml) (a “++” sign indicates a 51 to 89% reduction in growth) | Reduction v. control* (S. aureus 31): — | Reduction v. total** (S. aureus 31): 50% | viability of adhered cells (bacteria): significant reduction in the viability | total adhesion of bacteria (bacteria): did not reduce the total adhesion

B1: Secretory leukocyte protease inhibitor (protein, UniProt P03973 26-132, looked up)
Antileukoproteinase: SGKSFKAGVCPPKKSAQCLRYKKPECQSDWQCPGKKRCCPDTCGIKCLDPVDTPNPTRRKPGKCPVTYGQCLMLNPPNFCEMDGQCKRDLKCCMGMCGKSCVSPVKA
notes: cationic protein, source human
reduction in bacterial growth ([6]; growth state not given, 10-100 μg/ml): — | Reduction v. control* (P. aeruginosa 6294; [7]): — | Reduction v. total** (P. aeruginosa 6294; [8]): — | Reduction v. control* (S. aureus 31): — | Reduction v. total** (S. aureus 31): —
